Literature values as cited in patent US20050064019A1, “Impregnated, flexible, rawhide pet chews containing antimicrobially active chlorhexdine” (priority 2003, published 2005).

Columns and labels:
bacterial spores = conditions: except at elevated temperatures
[1] = rat, in vivo
[2] = two years continuous use

## [H]/N=C(\N/C(=N/[H])NCCCCCCNC(=N)NC(=N)Nc1ccc(Cl)cc1)Nc1ccc(Cl)cc1 [chlorhexidine]
other
  Solubility in water: practically insoluble in water
Bacterial spores
  Activity against bacterial spores: inactive
[1]
  Tolerance of chlorhexidine in drinking water: without detectable interference with growth and reproduction
[2]
  Side effects in long term trials: no systemic or serious local side effects
Fungal spores
  Activity against fungal spores: inactive
